According to patent US10500248B2, “Method for treating cancer” (SUNNYBROOK RESEARCH INSTITUTE, priority 2015, dated 2019):
Read-outs that look alike come from different tables or passages of the source.

How the values were obtained:
PC3 cells [1] = conditions: for body weight: during each study
Experimental: The mice were housed and maintained in laminar flow cabinets under specific pathogen-free conditions in facilities approved by the University of Toronto Animal Research Ethics Board and in accordance with their regulations and standards by the Canadian Council on Animal Care (CCAC). Cells (1×10^6 PC3 cells with 100 μl martrigel solution (BD Biosciences, CA, USA)) were inoculated subcutaneously (sc) into 6-8 week-old male nude mice (Harlan Sprague Dawley, Inc.). After 14 days, the developing tumors were measured and mice randomly assigned to different treatment groups. Tumor volumes were determined by measurement of tumor length (L) and width (W) with a caliper and calculated according to the formula: V=(L×W^2)(π/6) twice a week. A tumor volume in the range of 100 mm^3 was required for a given mouse to be included. Using the xenograft model, tumor growth was determined for the control and each treatment mice. Mice were randomized into four groups; control (n=15), desmopressin alone (n=15), docetaxel alone (n=10) and desmopressin in combination with docetaxel (n=10). Control animals received only the saline vehicle. Desmopressin from Ferring Pharmaceuticals (Ferring Inc, CA, USA) was administrated in 2 doses, 0 h and 24 h. Mice received desmopressin intravenously in the saline at a final dose of 2 μg/ml/body weight (50 ng/0.3 ml saline dose). Mice were administrated docetaxel at a dose of 5 mg/kg intravenously as 3 weekly cycles. Desmopressin was administrated in 2 doses, 30 min prior to and 24 h after the administration of docetaxel. The animals that were administrated docetaxel or desmopressin in combination with docetaxel were sacrificed 35 days after cell inoculation. Control and desmopressin mice were monitored until tumor volume was approximately 1500 mm3 or day 49, whichever earlier, in order to evaluate antitumor effect of desmopressin in vivo study.
All experiments were performed in triplicates. The date represented mean±the standard error of the mean. Statistical analysis was done by Student's t test at a significance level of P<0.05. Analyses of the in vivo results were performed using either Student's t-testing or repeated measures one-way ANOVA techniques.

PC3 cells [2] = assay: MTS cell proliferation assay, PC3; assay type: cell-based, human; conditions: PC3, 72 h; docetaxel 0-100 nM; desmopressin 1 nM-1 μM; combination desmopressin (1 nM, 1 μM) and 5 nM docetaxel
Experimental: PC3 human prostate carcinoma cells were obtained from the American Type Culture Collection (Rockville, Md., USA). Cells were cultured in DMEM/F12 medium (Invitrogen, ON, Canada) with 10% fetal bovine serum (FBS; Gibco, NY, USA), 100 IU/ml penicillin, 100 μg/ml streptomycin and 0.3 mg/ml 1-glutamine, and maintained at 37° C. in a humidified atmosphere of 5% CO2 in air. Cells were grown to 80% confluence in 10-cm tissue culture plates.
Cell proliferation was determined by MTS assay as previously described.^14 Cells (5×10^3/well) were plated using 96 well plates. After cultivation for 24 h, a range of concentration of desmopressin (100 pM-1 μM) and/or Docetaxel (1 nM-100 nM) were added and culture continued for up to 72 h. Cell viability was assessed by incubation with MTS for 2 hours and resulting absorbance measured at 595 nm using an ELISA plate reader. In the combination studies, varying dose of each agents were tested. The experiments were repeated 3 times in triplicates and statistical analysis performed.

PC3 cells [3] = assay: Matrigel invasion assay, PC3; assay type: cell-based, human; conditions: 5 nM docetaxel, desmopressin 1 nM and 1 uM
Experimental: (§1) The migration of cells was measured using transwell insert plates (BD Biosciences, Bedford Mass.) according to the manufacture's protocol. Cells were subjected to 24 h of serum deprivation in DMEM/F12 supplemented with FBS. PC3 (5×10^4) cells were plated onto filters in 8.0-μm transwell insert plates and treated with these compounds, desmopressin (1 nM, 1 μM) and 5 nM docetaxel, in serum-free medium. The lower chamber also contained 10% FBS. Cells were allowed to migrate for 24 h. After the treatment, cells remaining on the top surfaces of the filter were removed using cotton swabs. The migrated cells that are attached to the lower surface of the filter were fixed in 4% formaldehyde at room temperature for 30 min, and then stained with crystal violet for 20 min. The migrated cells from random fields were chosen and counted using the computer-based microscopy imaging system. For the invasion assay, the same procedures were performed as described in the migration assay, except that the cells were plated onto 24-well matrigel-coated transwell plates (BD Biosciences, Bedford Mass.). The experiments were repeated 2 times in duplicates and statistical analysis performed.

DU145 cells [4] = assay: DU145 xenograft model in athymic nude mice; assay type: in vivo; conditions: day 55 post inoculation
Experimental: 6-week old male athymic nude mice (Charles river, QC, Canada) were used to evaluate the effect of combination therapy on DU145 tumor growth in vivo. […] Following 2 weeks of housing, 1×10^6 DU145 cells per animal in 100 μL matrigel solution (BD Bioscience, CA, USA) were inoculated subcutaneously, according to procedure described by Fridman et al (51). After 14 days following inoculation, body weight and tumor size were measured, and mice were randomly assigned to different treatment groups. Groups included control (sham treatments), DTX (5 mg/kg body weight) intraperitoneally, Desmopressin (2 μg/ml/body weight) intravenously 30 minutes prior to IP injection and 24 hours later or combination therapy (n=4 per group). Each group received treatment once every other week for a total of 3 treatments. Animal weight and tumor measurements were assessed regularly. Tumor size was calculated by length (L) and width (W) measured with caliper according to the following formula: V=(L×W2) ( […] /6).
Two weeks following the last treatment, mice were euthanized; tumors were excised, measured directly with caliper and sent for histological analysis.
Statistics: Tumor volume calculated during the treatment period were compared using repeated measures one-way ANOVA test (SPSS©). Final tumor volume and body weight measurements were compared separately using one-way ANOVA test.

[5] = test system: pro-uPA, active uPA, uPAR, MMP-2 and MMP-9 in PC3 cells; assay: Western blot of uPA-MMP pathway, PC3; assay type: cell-based, human
Experimental: (§2) Protein lysates from the desmopressin monotherapy dose response study (100 pM-1 uM), desmopressin monotherapy time point study (1 uM, 0-48 h) and combination study and concentrated media employed for Western blot analysis, were prepared as previously described.^14 The proteins were subjected to 10-12% SDS-PAGE and electrophoretically transferred onto a PVDF membrane at 100V/300 mA overnight using a semidry transfer apparatus (Bio-Rad Laboratories, Hercules, Calif.). After activation in methanol (100%), blots were incubated for 60 mins at room temperature in TBST containing 5% skimmed milk. After washing, the membranes were incubated with primary antibodies against Bax, bcl-2, p21 (waf1/cip1), p27 (kip1), cdk2, cdk4, uPA, uPAR, MMP-2 and MMP-9 (1:100-200, Santacruz Biotechnology, Santacruz, Calif., USA). After incubation with respective primary antibody, the membrane was washed with TBST 3 times for 5 min, then incubated with appropriate secondary antibody for 1 h at room temperature and washed with TBST 3 times for 5 min. Protein detection was performed with enhanced chemiluminescence Western blotting regents (Amersham Pharmacia Biotech, Buckinghamshire, UK).

DU145 cells [6] = assay: Wound healing assay, DU145; assay type: cell-based; conditions: for effect on migration (wound closure) compared to control: 10 nM DTX alone, Desmopressin alone
Experimental: The motility inhibitory potential of desmopressin alone and/or in combination with docetaxel was accessed by wound healing assay according to previously described protocol^49, 50. DU145 cell were plated on 24-well plates at a concentration of 50,000 cells per well and were allowed to grow until they reached 90-100% confluence. After incubating the cells with 1 mg/L Mitomycin C (Sigma©) for 1 hour, a vertical scratch across each well was created; floating cells removed and cell media or media with treatment solutions were added. Images were obtained at zero-time point and after 24 hours of treatment. A computer-based microscopy imaging system with X200 magnification (Axiovision©) was used to measure wound healing of each well. Each experiment was carried out in duplicates and repeated three times

[7] = test system: cyclin A, cyclin B, CDK2, CDK4, p21(waf1/cip1), p27(kip1), Bax, Bcl-2, PARP, Caspase 3 in PC3 cells; assay: Western blot of cell cycle and apoptosis proteins, PC3; assay type: cell-based, human
Experimental: as §2

PC3 cells [8] = assay: Transwell cell migration assay, PC3; assay type: cell-based, human; conditions: PC3, 24 h; desmopressin 1 nM and 1 μM; 5 nM docetaxel in combination
Experimental: as §1

PC3 cells [9] = assay: Flow cytometry cell cycle analysis (BrdU labeling), PC3; assay type: cell-based, human
Experimental: To analyze cell cycle profiles, cells were plated at a density of 1×10^6 per 10 cm dish. Asynchronously growing cells were pulse labeled with […] bromodeoxyuridine (BrdU) for 2 h with or without prior treatment of the antioxidants at the end of 24 h. Cells were then harvested, fixed with 70% ethanol, treated with 0.1% HCl and heated for 10 min at 90° C. to expose the labeled DNA. Cells were stained with anti-BrdU-conjugated FITC (Becton-Dickinson) and counterstained with propidium iodide, and then allowed to incubate for 30 mins on ice. Samples were filtered through a nylon mesh. Cell cycle analysis was carried out on the FACS Calibur flow cytometer using the Cell Quest Pro software package (Becton-Dickinson, CA, USA). The experiments were repeated 3 times in triplicates and statistical analysis performed as mentioned below.

[10] = dose response study 100 pM-1 uM

For `NC(=O)CC[C@@H]1NC(=O)[C@H](Cc2ccccc2)NC(=O)[C@H](Cc2ccc(O)cc2)NC(=O)CCSSC[C@@H](C(=O)N2CCC[C@H]2C(=O)N[C@H](CCCN=C(N)N)C(=O)NCC(N)=O)NC(=O)[C@H](CC(N)=O)NC1=O` [desmopressin, 1-desamino-8-D-arginine vasopressin], the mean tumor volume (PC3 cells [1]; PC3 xenograft, nude mice, day 35 post tumor inoculation, desmopressin 2 μg/ml/body weight i.v.) was 642 mm3, the body weight (PC3 cells [1]; PC3 xenograft, nude mice) was “consistently maintained their body weight” and the tolerability of treatment (PC3 cells [1]; PC3 xenograft, nude mice, intravenous injection) was “well tolerated”. For the same molecule, the “tumor growth / tumor size versus control (and docetaxel alone)” value (PC3 cells [1]; PC3 xenograft, nude mice, docetaxel 5 mg/kg i.v., desmopressin 2 μg/ml/body weight i.v.) was “significantly slower rate of tumor development”, the “cell proliferation / cell viability (MTS), relative to untreated control cells” value (PC3 cells [2]) was “significantly reduced cell proliferation” and the “cell invasion, matrigel invasion assay” value (PC3 cells [3]) was “significantly inhibition of cell invasion”. The “average tumor size, final direct measurement of excised tumors” value (DU145 cells [4]) was 1597±681 mm3, the “expression of MMP-2” value [5, 10] was “reduced in a dose dependent manner” and the “expression of MMP-9” value [5, 10] was “reduced in a dose dependent manner”. The “expression of active uPA” value [5, 10] was “reduced in a dose dependent manner”, the “expression of precursor pro-uPA” value [5, 10] was “reduced in a dose dependent manner” and the “expression of uPAR” value [5, 10] was “unaltered”. The “expression of MMP-2” value ([5]; time point study, 1 μM, 0-48 h) was “reduced in a time dependent manner”, the “expression of MMP-9” value ([5]; time point study, 1 μM, 0-48 h) was “reduced in a time dependent manner” and the “expression of uPA” value ([5]; time point study, 1 μM, 0-48 h) was “reduced in a time dependent manner”. For the same molecule, the “expression of uPAR” value ([5]; time point study, 1 μM, 0-48 h) was “not altered”, the “effect on migration (wound closure) compared to control” value (DU145 cells [6]; DU145, 24 hours) was “no statistical significant effect” and the “expression of (total) Caspase 3” value [7] was “did not reduce the expression”. For the same molecule, the “expression of PARP” value [7] was “did not reduce the expression”, the “expression of bcl-2” value [7] was “did not reduce the expression” and the “cell migration, transwell plates” value (PC3 cells [8]) was “significantly inhibited cell migration”. The cell cycle distribution (PC3 cells [9]; monotherapy) was “did not alter cell cycle distribution”.
With `CC(=O)O[C@@]12CO[C@@H]1C[C@H](O)[C@@]1(C)C(=O)[C@H](O)C3=C(C)[C@@H](OC(=O)[C@H](O)[C@@H](NC(=O)OC(C)(C)C)c4ccccc4)C[C@@](O)([C@@H](OC(=O)c4ccccc4)[C@H]21)C3(C)C` [docetaxel] the body weight (PC3 cells [1]; PC3 xenograft, nude mice) was “consistently maintained their body weight”, the tolerability of treatment (PC3 cells [1]; mouse, in vivo, iv) was “well tolerated” and the “cell proliferation / cell viability (MTS), relative to untreated control cells” value (PC3 cells [2]) was “decreased cell viability in a dose dependent manner”. The “cell invasion, matrigel invasion assay” value (PC3 cells [3]) was “significantly inhibition of cell invasion”, the “average tumor size, final direct measurement of excised tumors” value (DU145 cells [4]) was 1330±550 mm3 and the “effect on migration (wound closure) compared to control” value (DU145 cells [6]; DU145, 24 hours) was “migration inhibitory effect”. The “in vitro wound closure” value (DU145 cells [6]; DU145, 24 hours, DTX 10 nM, alone or combined with 1 μm Desmopressin) was 48.9%, the “cell kill in wound healing assay” value (DU145 cells [6]; DU145, DTX concentration of 100 μM) was “significant cell kill” and the “proportion of cells in G2 phase” value (PC3 cells [9]; 5 nM docetaxel, alone or with 1 nM/1 μM desmopressin) was “significant increase in the proportion of cells in G2 phase”.
